# Publication PMC4503722, “Novel Phenotypic Outcomes Identified for a Public Collection of Approved Drugs from a Publicly Accessible Panel of Assays” (PLoS ONE, 2015)
# Legend:
# [1] = tested on: endothelial tube formation in co-cultures of ECFCs and ADSCs treated with VEGF; assay: cells; assay type: cell-based, human
# DLD-1 = assay: cells; assay type: cell-based; settings: basal
# SW480 = assay: cells; assay type: cell-based; settings: basal
# HCT116 = assay: cells; assay type: cell-based; settings: basal
# [2] = tested on: HCT116 cells treated with a GSK3β inhibitor; assay: cells; assay type: cell-based; settings: for IC50/EC50, GSK3b inh pretreated_Viability ATP HCT116 (assay number 26): GSK3b inh pretreated
# Colo320 = assay: cells; assay type: cell-based; settings: basal
# HT-29 = assay: cells; assay type: cell-based; settings: basal
# RKO = assay: cells; assay type: cell-based; settings: basal
# SNU-C1 = assay: cells; assay type: cell-based; settings: basal
# [3] = tested on: ECFC/ADSC co-culture cell nuclei number
# [4] = assay number 26, GSK3b inhibitor pretreated
SMILES,VEGF_ADSC\ECFC Angio CD31 TubeArea IC50/EC50 [1] [µM],Basal_Viability ATP DLD-1 IC50/EC50 (DLD-1; assay number 23) [µM],Basal_Viability ATP SW480 IC50/EC50 (SW480; assay number 24) [µM],Basal_Viability ATP HCT116 IC50/EC50 (HCT116; assay number 25) [µM],"GSK3b inh pretreated_Viability ATP HCT116 IC50/EC50 [2, 4] [µM]",Basal_Viability ATP Colo 320 IC50/EC50 (Colo320; assay number 27) [µM],Basal_Viability ATP HT-29 IC50/EC50 (HT-29; assay number 28) [µM],Basal_Viability ATP RKO IC50/EC50 (RKO; assay number 29) [µM],Basal_Viability ATP SNU-C1 IC50/EC50 (SNU-C1; assay number 30) [µM],VEGF_ADSC\ECFC Angio Hoechst NucArea IC50/EC50 [3] [µM],"IC50/EC50, VEGF_ADSC\ECFC Angio CD31 TubeArea (assay number 2) [1] [µM]","IC50/EC50, Basal_Viability ATP DLD-1 (assay number 23) (DLD-1) [µM]","IC50/EC50, Basal_Viability ATP SW480 (assay number 24) (SW480) [µM]","IC50/EC50, Basal_Viability ATP HCT116 (assay number 25) (HCT116) [µM]","IC50/EC50, GSK3b inh pretreated_Viability ATP HCT116 (assay number 26) [2] [µM]","IC50/EC50, Basal_Viability ATP Colo 320 (assay number 27) (Colo320) [µM]","IC50/EC50, Basal_Viability ATP HT-29 (assay number 28) (HT-29) [µM]","IC50/EC50, Basal_Viability ATP RKO (assay number 29) (RKO) [µM]","IC50/EC50, Basal_Viability ATP SNU-C1 (assay number 30) (SNU-C1) [µM]","IC50/EC50, VEGF_ADSC\ECFC Angio Hoechst NucArea (assay number 3) [3] [µM]",also measured
CN1CCN(c2cc3c(nn2)Oc2ccccc2N3C)CC1 [NCGC00160646-02],> 10,> 20,> 20,> 20,> 20,> 20,> 20,> 20,> 20,> 10,,,,,,,,,,,
O=[N+]([O-])c1cccc(S(=O)(=O)NCCNS(=O)(=O)c2cccc([N+](=O)[O-])c2)c1 [NCGC00160679-02],> 10,> 20,> 20,> 20,> 20,> 20,> 20,> 20,> 20,> 10,,,,,,,,,,,
CSc1ccc(/C=C2/C(C)=C(CC(=O)O)c3cc(F)ccc32)cc1 [NCGC00161601-02],,,,,,,,,,,> 10,> 20,19.964,> 20,> 20,> 20,> 20,> 20,11.9864,> 10,
C=CCN1CC[C@]23CCCC[C@H]2[C@H]1Cc1ccc(O)cc13 [NCGC00162247-06],,,,,,,,,,,> 10,> 20,> 20,> 20,> 20,> 20,> 20,> 20,> 20,> 10,
COP(=S)(OC)Oc1ccc(Sc2ccc(OP(=S)(OC)OC)cc2)cc1 [NCGC00163910-05],,,,,,,,,,,,,,,,,,,,,"IC50 ([1]; read-out: VEGF_ADSC\ECFC Angio CD31 TubeArea summarized IC50): > 10 µM; IC50 (DLD-1; assay number 23, read-out: Basal_Viability ATP DLD-1 summarized IC50): > 20 µM; IC50 (SW480; assay number 24, read-out: Basal_Viability ATP SW480 summarized IC50): 0.0118 µM; IC50 (HCT116; assay number 25, read-out: Basal_Viability ATP HCT116 summarized IC50): > 20 µM; IC50 ([2]; assay number 26, GSK3b inhibitor pretreated, read-out: GSK3b inh pretreated_Viability ATP HCT116 summarized IC50): > 20 µM; IC50 (Colo320; assay number 27, read-out: Basal_Viability ATP Colo 320 summarized IC50): > 20 µM; IC50 (HT-29; assay number 28, read-out: Basal_Viability ATP HT-29 summarized IC50): > 20 µM; IC50 (RKO; assay number 29, read-out: Basal_Viability ATP RKO summarized IC50): 12.1 µM; IC50 (SNU-C1; assay number 30, read-out: Basal_Viability ATP SNU-C1 summarized IC50): 3.03 µM; IC50 ([3]; read-out: VEGF_ADSC\ECFC Angio Hoechst NucArea summarized IC50): > 10 µM"
COCC(C)N(C(=O)CCl)c1c(C)csc1C (stereo not drawn) [NCGC00163935-05],> 10,> 20,> 20,> 20,> 20,> 20,> 20,> 20,> 20,> 10,,,,,,,,,,,
